In brackets after ≈: the same amount, converted by molar mass. Activity calls are given as the source filed them. The rule behind the calls is not given here.
Assays:
[1] = system: L1210; test: Cytotoxicity against mouse L1210 cells assessed as inhibition of DNA synthesis by [3H]thymidine incorporation assay; type: functional; settings: read-out: ID50 (the source's name)
[2] = system: Walker 256; test: Growth inhibition of rat Walker 256 cells; type: functional, cell-based

Structure (SMILES) | IC50 [1] | Activity [2]
CCCCCCC/C=C/C(=O)CCCCCCCCCC(CCCCCCC)C(=O)O (stereo not drawn) [FICULINIC ACID B] | 12 µg/mL (≈ 27.5 µM) | 
CCCCCCC/C=C/C(=O)CCCCCCCC(CCCCCCC)C(=O)O (stereo not drawn) [FICULINIC ACID A] | 10 µg/mL (≈ 24.5 µM) | 
CCCCC/C=C\CCC(=O)CCCCCCO |  | Active

Source: ChEMBL document CHEMBL1149004, “Ficulinic acid A and B, two novel cytotoxic straight-chain acids from the sponge Ficulina ficus” (1986)
